Source: ChEMBL document CHEMBL3991601, “The target landscape of clinical kinase drugs” (Science, 2017)
Calls of active or inactive are those of the source. For most assays here, no stated cut-off is given here; in the data, actives have a measured Kd and inactives only a lower limit.

How the values were obtained:
[1] = biological target: Protein kinase C theta type (Homo sapiens, UniProt Q04759)
[2] = biological target: Tyrosine-protein kinase ABL1 (Homo sapiens, UniProt P00519)
Ephrin type-A receptor 4 = Ephrin type-A receptor 4 (Homo sapiens, UniProt P54764)
ADP/ATP translocase 3 = biological target: T1, ADP/ATP translocase 3 (Homo sapiens, UniProt P12236)
T1 sequence (P12236 whole entry): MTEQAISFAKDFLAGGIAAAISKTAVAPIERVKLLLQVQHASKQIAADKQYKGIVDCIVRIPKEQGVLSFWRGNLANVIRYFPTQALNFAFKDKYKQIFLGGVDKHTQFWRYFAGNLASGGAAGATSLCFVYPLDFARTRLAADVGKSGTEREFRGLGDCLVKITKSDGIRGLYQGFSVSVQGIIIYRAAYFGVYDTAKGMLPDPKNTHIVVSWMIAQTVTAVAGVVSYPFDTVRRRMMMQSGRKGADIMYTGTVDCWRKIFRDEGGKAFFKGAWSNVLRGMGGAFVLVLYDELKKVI

[3] = biological target: T2, Serine/threonine-protein kinase D3 (Homo sapiens, UniProt O94806)
T2 sequence (O94806 whole entry): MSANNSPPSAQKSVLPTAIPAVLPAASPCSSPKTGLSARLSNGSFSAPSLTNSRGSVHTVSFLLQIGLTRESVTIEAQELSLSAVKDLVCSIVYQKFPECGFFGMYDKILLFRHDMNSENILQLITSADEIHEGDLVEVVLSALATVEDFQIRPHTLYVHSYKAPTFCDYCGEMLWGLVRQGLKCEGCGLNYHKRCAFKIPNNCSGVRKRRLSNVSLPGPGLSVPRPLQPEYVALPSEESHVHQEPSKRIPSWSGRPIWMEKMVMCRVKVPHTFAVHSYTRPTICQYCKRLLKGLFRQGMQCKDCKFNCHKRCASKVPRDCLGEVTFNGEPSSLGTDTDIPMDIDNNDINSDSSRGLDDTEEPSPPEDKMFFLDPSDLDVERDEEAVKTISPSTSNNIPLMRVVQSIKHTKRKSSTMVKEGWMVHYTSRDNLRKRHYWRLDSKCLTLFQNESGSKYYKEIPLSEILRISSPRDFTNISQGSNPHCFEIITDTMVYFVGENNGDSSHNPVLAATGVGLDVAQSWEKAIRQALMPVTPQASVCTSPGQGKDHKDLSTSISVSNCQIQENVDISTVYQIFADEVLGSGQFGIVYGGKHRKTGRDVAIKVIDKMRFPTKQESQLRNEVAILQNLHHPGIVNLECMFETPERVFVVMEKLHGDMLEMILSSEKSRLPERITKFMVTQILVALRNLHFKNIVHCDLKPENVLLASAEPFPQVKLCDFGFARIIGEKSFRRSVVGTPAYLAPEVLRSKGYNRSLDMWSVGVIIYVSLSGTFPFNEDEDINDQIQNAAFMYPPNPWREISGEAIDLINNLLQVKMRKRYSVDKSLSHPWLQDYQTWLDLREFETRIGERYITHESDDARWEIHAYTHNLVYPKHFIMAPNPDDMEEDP

[4] = biological target: Protein kinase C delta type (Homo sapiens, UniProt Q05655)
[5] = biological target: RAC-gamma serine/threonine-protein kinase (Homo sapiens, UniProt Q9Y243)
[6] = biological target: Serine/threonine-protein kinase 26 (Homo sapiens, UniProt Q9P289)
Pyridoxal kinase = biological target: T3, Pyridoxal kinase (Homo sapiens, UniProt O00764)
T3 sequence (O00764 whole entry): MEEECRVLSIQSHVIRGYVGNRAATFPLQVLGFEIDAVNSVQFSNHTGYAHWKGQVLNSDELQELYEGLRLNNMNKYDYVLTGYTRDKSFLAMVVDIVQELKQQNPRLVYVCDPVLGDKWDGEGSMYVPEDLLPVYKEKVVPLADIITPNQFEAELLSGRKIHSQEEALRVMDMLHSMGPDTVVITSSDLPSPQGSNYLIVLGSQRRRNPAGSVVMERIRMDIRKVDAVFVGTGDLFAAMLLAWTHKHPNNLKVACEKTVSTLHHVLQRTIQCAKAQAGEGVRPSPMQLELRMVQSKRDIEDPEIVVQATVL

[7] = biological target: T4, Serine/threonine-protein kinase 4 (Homo sapiens, UniProt Q13043)
T4 sequence (Q13043 whole entry): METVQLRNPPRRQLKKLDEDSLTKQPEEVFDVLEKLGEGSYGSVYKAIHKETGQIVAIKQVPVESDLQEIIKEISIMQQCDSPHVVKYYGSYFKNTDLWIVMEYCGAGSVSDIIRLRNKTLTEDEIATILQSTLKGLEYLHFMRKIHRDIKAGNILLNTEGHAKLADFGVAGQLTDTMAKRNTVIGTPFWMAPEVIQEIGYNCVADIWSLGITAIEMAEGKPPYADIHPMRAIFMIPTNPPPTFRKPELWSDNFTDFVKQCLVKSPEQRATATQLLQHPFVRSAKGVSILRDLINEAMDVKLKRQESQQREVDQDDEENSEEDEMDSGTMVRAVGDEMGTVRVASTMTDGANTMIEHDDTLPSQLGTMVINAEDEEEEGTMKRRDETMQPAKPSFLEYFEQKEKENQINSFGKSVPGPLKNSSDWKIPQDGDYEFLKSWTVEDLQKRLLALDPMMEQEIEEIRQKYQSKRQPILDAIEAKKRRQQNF

[8] = biological target: T5, Serine/threonine-protein kinase Chk1 (Homo sapiens, UniProt O14757)
T5 sequence (O14757 whole entry): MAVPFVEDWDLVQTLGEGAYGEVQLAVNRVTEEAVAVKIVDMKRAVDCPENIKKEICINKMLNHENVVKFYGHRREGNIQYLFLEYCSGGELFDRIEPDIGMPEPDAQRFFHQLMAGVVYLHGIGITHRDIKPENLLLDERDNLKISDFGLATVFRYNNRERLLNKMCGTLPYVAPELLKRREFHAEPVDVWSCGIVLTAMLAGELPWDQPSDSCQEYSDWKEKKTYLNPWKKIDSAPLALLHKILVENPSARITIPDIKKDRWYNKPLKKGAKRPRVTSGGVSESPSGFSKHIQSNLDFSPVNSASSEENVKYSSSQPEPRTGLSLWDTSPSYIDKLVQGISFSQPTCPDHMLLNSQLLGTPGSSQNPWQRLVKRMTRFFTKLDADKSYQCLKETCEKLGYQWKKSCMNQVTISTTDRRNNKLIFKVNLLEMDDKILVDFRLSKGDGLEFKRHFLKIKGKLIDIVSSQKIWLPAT

Chain of Protein kinase C theta type (Q04759 whole entry): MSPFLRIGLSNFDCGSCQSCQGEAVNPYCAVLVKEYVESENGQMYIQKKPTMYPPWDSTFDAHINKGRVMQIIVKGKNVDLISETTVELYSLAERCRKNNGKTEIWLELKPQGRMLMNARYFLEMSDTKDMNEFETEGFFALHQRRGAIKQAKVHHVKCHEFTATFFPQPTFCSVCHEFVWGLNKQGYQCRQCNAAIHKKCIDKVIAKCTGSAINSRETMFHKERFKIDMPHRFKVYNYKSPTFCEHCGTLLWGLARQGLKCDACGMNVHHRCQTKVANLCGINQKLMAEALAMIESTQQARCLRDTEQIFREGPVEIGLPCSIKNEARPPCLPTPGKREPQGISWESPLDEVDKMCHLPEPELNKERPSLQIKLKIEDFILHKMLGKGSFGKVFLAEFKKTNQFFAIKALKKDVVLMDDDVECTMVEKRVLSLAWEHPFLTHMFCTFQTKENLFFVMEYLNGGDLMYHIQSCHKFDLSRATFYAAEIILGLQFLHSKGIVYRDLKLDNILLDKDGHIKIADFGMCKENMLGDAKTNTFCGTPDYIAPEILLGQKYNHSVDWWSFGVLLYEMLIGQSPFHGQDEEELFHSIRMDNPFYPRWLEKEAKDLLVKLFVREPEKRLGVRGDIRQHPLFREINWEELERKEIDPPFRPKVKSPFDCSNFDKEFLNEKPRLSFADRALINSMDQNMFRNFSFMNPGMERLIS
Chain of Serine/threonine-protein kinase 26 (Q9P289 whole entry): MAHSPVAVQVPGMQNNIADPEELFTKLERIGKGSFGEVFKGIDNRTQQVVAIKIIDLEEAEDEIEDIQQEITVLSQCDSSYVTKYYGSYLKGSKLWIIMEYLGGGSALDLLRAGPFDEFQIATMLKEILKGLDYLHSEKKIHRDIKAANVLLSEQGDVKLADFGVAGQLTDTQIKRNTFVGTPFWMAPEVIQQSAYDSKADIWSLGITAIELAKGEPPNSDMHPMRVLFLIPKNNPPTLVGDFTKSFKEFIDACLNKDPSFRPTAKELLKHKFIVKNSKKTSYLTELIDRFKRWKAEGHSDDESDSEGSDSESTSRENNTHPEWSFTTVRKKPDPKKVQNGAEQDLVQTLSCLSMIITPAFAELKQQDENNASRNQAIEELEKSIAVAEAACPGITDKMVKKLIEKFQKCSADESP
Chain of RAC-gamma serine/threonine-protein kinase (Q9Y243 whole entry): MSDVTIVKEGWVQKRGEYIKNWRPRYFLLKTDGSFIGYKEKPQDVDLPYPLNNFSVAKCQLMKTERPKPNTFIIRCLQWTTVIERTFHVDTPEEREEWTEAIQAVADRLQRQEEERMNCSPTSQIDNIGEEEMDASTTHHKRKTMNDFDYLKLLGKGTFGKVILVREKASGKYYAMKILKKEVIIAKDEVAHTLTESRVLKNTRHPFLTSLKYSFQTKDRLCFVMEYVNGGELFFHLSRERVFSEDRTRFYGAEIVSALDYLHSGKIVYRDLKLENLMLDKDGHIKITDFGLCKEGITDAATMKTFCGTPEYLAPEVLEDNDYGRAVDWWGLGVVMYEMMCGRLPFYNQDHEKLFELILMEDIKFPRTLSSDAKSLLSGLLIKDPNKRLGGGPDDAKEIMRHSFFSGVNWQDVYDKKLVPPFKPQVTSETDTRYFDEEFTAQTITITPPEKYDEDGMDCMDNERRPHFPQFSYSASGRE
Chain of Ephrin type-A receptor 4 (P54764 whole entry): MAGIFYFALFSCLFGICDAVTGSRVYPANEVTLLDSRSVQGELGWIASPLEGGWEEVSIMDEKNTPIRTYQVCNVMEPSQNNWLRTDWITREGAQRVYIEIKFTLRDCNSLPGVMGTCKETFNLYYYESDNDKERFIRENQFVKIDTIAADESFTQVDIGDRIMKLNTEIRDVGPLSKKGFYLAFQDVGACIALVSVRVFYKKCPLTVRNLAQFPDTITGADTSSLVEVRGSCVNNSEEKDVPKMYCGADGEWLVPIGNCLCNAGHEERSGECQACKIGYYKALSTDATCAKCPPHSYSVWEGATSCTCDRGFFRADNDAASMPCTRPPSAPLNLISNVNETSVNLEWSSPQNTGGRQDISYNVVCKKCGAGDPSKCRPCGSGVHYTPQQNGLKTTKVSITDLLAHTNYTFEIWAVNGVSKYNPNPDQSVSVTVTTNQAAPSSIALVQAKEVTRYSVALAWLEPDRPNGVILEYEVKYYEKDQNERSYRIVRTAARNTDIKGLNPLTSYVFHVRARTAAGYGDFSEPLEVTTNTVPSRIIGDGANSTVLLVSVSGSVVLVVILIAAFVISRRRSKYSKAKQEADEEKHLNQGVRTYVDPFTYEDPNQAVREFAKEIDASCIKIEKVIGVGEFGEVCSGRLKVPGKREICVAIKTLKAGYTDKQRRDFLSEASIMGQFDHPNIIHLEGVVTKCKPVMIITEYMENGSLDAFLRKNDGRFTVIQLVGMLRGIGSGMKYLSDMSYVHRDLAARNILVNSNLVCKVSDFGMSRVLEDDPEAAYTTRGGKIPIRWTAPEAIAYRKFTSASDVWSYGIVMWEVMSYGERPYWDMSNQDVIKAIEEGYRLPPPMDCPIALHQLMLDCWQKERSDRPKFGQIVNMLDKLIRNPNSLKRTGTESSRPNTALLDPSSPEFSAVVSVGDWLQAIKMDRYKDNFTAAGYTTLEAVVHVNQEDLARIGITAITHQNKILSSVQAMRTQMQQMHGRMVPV
Chain of Tyrosine-protein kinase ABL1 (P00519 whole entry): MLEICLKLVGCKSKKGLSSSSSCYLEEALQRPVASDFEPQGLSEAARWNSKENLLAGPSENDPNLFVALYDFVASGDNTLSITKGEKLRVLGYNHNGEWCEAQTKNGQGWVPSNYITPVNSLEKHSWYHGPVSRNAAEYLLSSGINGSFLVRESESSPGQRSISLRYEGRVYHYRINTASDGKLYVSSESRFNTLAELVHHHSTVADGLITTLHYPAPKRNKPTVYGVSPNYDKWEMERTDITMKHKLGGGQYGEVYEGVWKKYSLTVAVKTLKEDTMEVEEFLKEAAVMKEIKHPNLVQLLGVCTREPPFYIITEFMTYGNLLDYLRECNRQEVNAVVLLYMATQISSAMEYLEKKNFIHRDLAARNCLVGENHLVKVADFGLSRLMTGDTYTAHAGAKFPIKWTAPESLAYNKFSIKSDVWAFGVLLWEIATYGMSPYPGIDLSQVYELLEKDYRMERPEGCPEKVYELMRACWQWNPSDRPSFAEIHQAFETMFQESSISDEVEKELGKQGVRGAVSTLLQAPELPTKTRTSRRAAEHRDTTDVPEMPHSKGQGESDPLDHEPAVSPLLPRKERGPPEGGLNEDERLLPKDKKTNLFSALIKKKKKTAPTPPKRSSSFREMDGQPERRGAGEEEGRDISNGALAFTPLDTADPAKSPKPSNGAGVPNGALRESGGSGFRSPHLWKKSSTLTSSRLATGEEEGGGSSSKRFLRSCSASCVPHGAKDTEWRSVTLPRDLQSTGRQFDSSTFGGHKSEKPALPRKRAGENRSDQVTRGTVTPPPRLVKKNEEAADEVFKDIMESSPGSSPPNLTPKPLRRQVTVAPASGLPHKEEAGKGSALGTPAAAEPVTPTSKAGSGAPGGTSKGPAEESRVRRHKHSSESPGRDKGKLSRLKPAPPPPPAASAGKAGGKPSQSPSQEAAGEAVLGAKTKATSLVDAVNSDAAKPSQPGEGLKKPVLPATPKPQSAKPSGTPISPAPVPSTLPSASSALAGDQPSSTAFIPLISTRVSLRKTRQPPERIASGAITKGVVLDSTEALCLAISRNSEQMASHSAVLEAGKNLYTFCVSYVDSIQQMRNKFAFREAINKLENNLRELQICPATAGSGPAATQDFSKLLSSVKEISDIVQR
Chain of Protein kinase C delta type (Q05655 whole entry): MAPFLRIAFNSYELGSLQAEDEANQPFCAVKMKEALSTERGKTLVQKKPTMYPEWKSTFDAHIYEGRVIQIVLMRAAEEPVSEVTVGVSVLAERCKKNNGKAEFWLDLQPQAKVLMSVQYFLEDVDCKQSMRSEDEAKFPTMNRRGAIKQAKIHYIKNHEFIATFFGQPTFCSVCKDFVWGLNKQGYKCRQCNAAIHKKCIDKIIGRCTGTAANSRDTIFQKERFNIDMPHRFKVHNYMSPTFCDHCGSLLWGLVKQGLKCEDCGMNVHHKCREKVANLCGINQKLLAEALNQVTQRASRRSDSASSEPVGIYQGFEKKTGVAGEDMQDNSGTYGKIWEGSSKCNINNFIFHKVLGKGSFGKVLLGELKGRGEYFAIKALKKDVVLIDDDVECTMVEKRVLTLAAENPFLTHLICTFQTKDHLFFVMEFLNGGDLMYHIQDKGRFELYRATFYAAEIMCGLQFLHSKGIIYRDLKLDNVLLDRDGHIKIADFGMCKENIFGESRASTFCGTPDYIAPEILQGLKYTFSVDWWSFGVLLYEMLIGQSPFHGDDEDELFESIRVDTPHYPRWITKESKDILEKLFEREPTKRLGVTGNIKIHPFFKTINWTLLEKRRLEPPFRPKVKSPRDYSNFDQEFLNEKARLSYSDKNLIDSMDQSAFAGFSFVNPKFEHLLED

SMILES	Kd [1]	Kd [2]	Kd (Ephrin type-A receptor 4)	Kd (ADP/ATP translocase 3)	Kd [3]	Kd [4]	Kd [5]	Kd [6]	Kd (Pyridoxal kinase)	Kd [7]	Kd [8]
Cc1nc(Nc2n[nH]c3c2CN(C(=O)N[C@H](CN(C)C)c2ccccc2)C3(C)C)c2sccc2n1 [PF-03758309]	0.085 µM (active)	> 30 µM (inactive)	> 30 µM (inactive)	> 30 µM (inactive)	0.268 µM (active)	0.974 µM (active)	> 30 µM (inactive)	0.017 µM	> 30 µM (inactive)	4.32 µM (active)	0.21 µM (active)
CO[C@H]1C[C@@H]2CC[C@@H](C)[C@@](O)(O2)C(=O)C(=O)N2CCCC[C@H]2C(=O)O[C@H]([C@H](C)C[C@@H]2CC[C@@H](OP(C)(C)=O)[C@H](OC)C2)CC(=O)[C@H](C)/C=C(\C)[C@@H](O)[C@@H](OC)C(=O)[C@H](C)C[C@H](C)/C=C/C=C/C=C/1C [RIDAFOROLIMUS]	> 30 µM (inactive)	> 30 µM (inactive)	> 30 µM (inactive)	> 30 µM (inactive)	> 30 µM (inactive)	> 30 µM (inactive)	> 30 µM (inactive)	> 30 µM (inactive)	> 30 µM (inactive)	> 30 µM (inactive)	> 30 µM (inactive)
N#CC1(c2ccc(NC(=O)c3cccnc3NCc3ccncc3)cc2)CCCC1 [RIVOCERANIB]	> 30 µM (inactive)	> 30 µM (inactive)	> 30 µM (inactive)	> 30 µM (inactive)	> 30 µM (inactive)	> 30 µM (inactive)	> 30 µM (inactive)	> 30 µM (inactive)	> 30 µM (inactive)	> 30 µM (inactive)	> 30 µM (inactive)
O=c1[nH]ccc2cc(OC3CCNCC3)ccc12 [SAR-407899 FREE BASE]	> 30 µM (inactive)	> 30 µM (inactive)	> 30 µM (inactive)	> 30 µM (inactive)	> 30 µM (inactive)	0.021 µM (active)	> 30 µM (inactive)	> 30 µM (inactive)	> 30 µM (inactive)	> 30 µM (inactive)	> 30 µM (inactive)
CO[C@H]1C[C@@H]2CC[C@@H](C)[C@@](O)(O2)C(=O)C(=O)N2CCCC[C@H]2C(=O)O[C@H]([C@H](C)C[C@@H]2CC[C@@H](O)[C@H](OC)C2)CC(=O)[C@H](C)/C=C(\C)[C@@H](O)[C@@H](OC)C(=O)[C@H](C)C[C@H](C)/C=C/C=C/C=C/1C [SIROLIMUS]	> 30 µM (inactive)	> 30 µM (inactive)	> 30 µM (inactive)	> 30 µM (inactive)	> 30 µM (inactive)	> 30 µM (inactive)	> 30 µM (inactive)	> 30 µM (inactive)	> 30 µM (inactive)	> 30 µM (inactive)	> 30 µM (inactive)
CO[C@H]1C[C@@H]2CC[C@@H](C)[C@@](O)(O2)C(=O)C(=O)N2CCCC[C@H]2C(=O)O[C@H]([C@H](C)C[C@@H]2CC[C@@H](OC(=O)C(C)(CO)CO)[C@H](OC)C2)CC(=O)[C@H](C)/C=C(\C)[C@@H](O)[C@@H](OC)C(=O)[C@H](C)C[C@H](C)/C=C/C=C/C=C/1C [TEMSIROLIMUS]	> 30 µM (inactive)	> 30 µM (inactive)	> 30 µM (inactive)	> 30 µM (inactive)	> 30 µM (inactive)	> 30 µM (inactive)	> 30 µM (inactive)	> 30 µM (inactive)	> 30 µM (inactive)	> 30 µM (inactive)	> 30 µM (inactive)
COc1cc2c(Nc3ccc(Cl)c(Cl)c3F)ncnc2cc1OC[C@@H]1C[C@@H]2CN(C)C[C@@H]2C1 [TESEVATINIB]	> 30 µM (inactive)	0.921 µM (active)	0.44 µM (active)	> 30 µM (inactive)	> 30 µM (inactive)	> 30 µM (inactive)	> 30 µM (inactive)	> 30 µM (inactive)	> 30 µM (inactive)	> 30 µM (inactive)	> 30 µM (inactive)
O=C(Cc1ccc(-c2ccc(OCCN3CCOCC3)cc2)cn1)NCc1ccccc1 [TIRBANIBULIN]	> 30 µM (inactive)	> 30 µM (inactive)	> 30 µM (inactive)	> 30 µM (inactive)	> 30 µM (inactive)	> 30 µM (inactive)	> 30 µM (inactive)	> 30 µM (inactive)	> 30 µM (inactive)	> 30 µM (inactive)	> 30 µM (inactive)
O=C1NC(=O)[C@@H](c2cn3c4c(cccc24)CCC3)[C@@H]1c1c[nH]c2ccccc12 [TIVANTINIB]	> 30 µM (inactive)	> 30 µM (inactive)	> 30 µM (inactive)	> 30 µM (inactive)	> 30 µM (inactive)	> 30 µM (inactive)	> 30 µM (inactive)	> 30 µM (inactive)	> 30 µM (inactive)	> 30 µM (inactive)	> 30 µM (inactive)
C[C@@H](NC(=O)c1ncnc(N)c1Cl)c1ncc(C(=O)Nc2cc(C(F)(F)F)c(Cl)cn2)s1 [TOVORAFENIB]	> 30 µM (inactive)	0.498 µM (active)	> 30 µM (inactive)	> 30 µM (inactive)	> 30 µM (inactive)	> 30 µM (inactive)	> 30 µM (inactive)	> 30 µM (inactive)	> 30 µM (inactive)	> 30 µM (inactive)	> 30 µM (inactive)
Cc1cc(Nc2ncnc3ccc(NC4=NC(C)(C)CO4)cc23)ccc1Oc1ccn2ncnc2c1 [TUCATINIB]	> 30 µM (inactive)	> 30 µM (inactive)	> 30 µM (inactive)	> 30 µM (inactive)	> 30 µM (inactive)	> 30 µM (inactive)	> 30 µM (inactive)	> 30 µM (inactive)	> 30 µM (inactive)	> 30 µM (inactive)	> 30 µM (inactive)
